# Patent US20030064989A1, “Inhibitors of cell proliferation, angiogenesis, fertility, and muscle contraction” (priority 2001, published 2003)
# “And” between values parts separate entries of the source, which are not always exact repeats. Identical values can stand only once.
# How the values were obtained:
# [1] = test system: chick chorioallantoic membrane (CAM); assay: Chick chorioallantoic membrane (CAM) assay, CAM area
# Description: The chick chorioallantoic membrane (CAM) assay is perhaps the most widely used assay for screening anti-angiogenic or growth inhibitory compounds (see, e.g. Ribatti et al., Int. J. Dev. Biol. 40:1189-1197 (1996)). Cell proliferation and angiogenesis were evaluated by measuring CAM area and BrdU labeling using the CAM assay as modified by Melkonian et al., J. Exp. Zool. (2001), in review. Fertilized chicken eggs were purchased from Hy-Line International (Lakeview, CA), then incubated at 37° C. at 85-90% relative humidity throughout the experiment. Experiments were done to evaluate cell proliferation, angiogenesis, and vascularization in CAMs between days 5 and 6 after fertilization. Albumin (2.5-3.0 cc) was removed on the fourth day after fertilization to drop the embryo away from the shell. Windows were then made in shells, and sealed with transparent tape to allow subsequent access to the CAM for experimental treatment. 200 μl of either EBSS-H or different concentrations of pure chemicals were added to the surface of each CAM at 10 AM on the fifth day after fertilization. A sham control group in which the window was opened and resealed was also included in each experiment. In all cases, the following five concentrations of test reagents were used, 5×10^−3 M, 5×10^−5 M, 5×10^−7M, 5×10^−9 M and 5×10^−11M. For 2-ethylpyridine and 3-ethylpyridine additional concentrations of 5×10^−12M, 5×10^−13M, 5×10^−14 M and 5×10^−15 M were used. For nicotine and nornicotine, concentrations of 5×10^−4 M, 5×10^−6 M, 5×10^−8 M and 5×10^−10 M were also used. Development was terminated at 10 AM on the sixth day after fertilization by fixing the embryo and the CAM with 3% glutaraldehyde in 0.1M cacodylate buffer (pH 7.4) for 2 hours at room temperature. A small volume of fixative was also injected under the CAM. The CAMs were later dissected from eggs, post-fixed in the same fixative for 24 hours at room temperature, then thoroughly rinsed in PBS.
# At least 6 CAMs were used in each control and experimental group. Parameters which measure aspects of cell proliferation, angiogenesis, and vacularization were quantified for each CAM. These parameters include: (1) for cell proliferation—CAM area, BrdU labeling of nuclei; (2) for angiogenesis—blood vessel pattern, blood vessel area, blood vessel diameter, and blood vessel branching; (3) for vascularization—density of angiogenic clusters. The area of each CAM was measured by placing the CAMs in PBS in a Petri dish under a Wild-M5A dissecting microscope (Max ERB instrument Co., Burbank, CA), then measuring the longest and shortest length of each CAM with a ruler to the precision of 0.5 mm. The data were recorded into Excel spreadsheet. CAM area was calculated using the formula:
# where A=longest length, B=longest width, π=3.14.
# Means and standard deviations were then calculated for each control and treatment group. The treated group means were used to compare with control means to determine the effect of each chemical on CAM growth.
# On the fifth day after fertilization, either EBSS-H or different concentrations of test chemicals were added to each CAM. A sham group in which windows were opened and resealed without adding any solution was also included to determine if the vehicle EBSS-H had any effect on CAM area. Development was terminated 24 hours later, and CAMs were measured as described in Materials and Methods.
# [2] = test system: hamster oviduct explants (infundibulum); assay: Oocyte pickup rate (OPR) assay; assay type: cell-based, golden hamsters (Mesocricetus auratus)
# Description: Hamsters were injected with 25 I.U. of human chorionic gonadotropin (hCG) on the evening of Day 4 of their estrous cycle. On the day of the experiment, approximately 12 hours after the injection of hCG, hamsters were sacrificed using CO2, and oviducts and ovaries were removed. During dissection the oviduct and ovary were separated. Ovaries were isolated in EBSS-HA and expanded follicles were poked with a dissecting needle to release the oocyte cumulus complexes (OCCs). Oocyte cumulus complexes were transferred to a fresh Petri dish and placed in EBSS-HA. The infundibulum was cut from the oviduct leaving part of the ampulla attached to function as a handle. […]
# Oocyte cumulus complex pick-up rate was measured using hamster oviduct explants in an in vitro assay (Huang et al., 1997, supra; Knoll et al., 1998, supra; Talbot et al., 1998, supra). […] An oocyte cumulus complex was placed at the base of the infundibulum and the length of time needed for the complex to traverse a defined path to the ostium was recorded. […] Then the test smoke solution or chemical was added to the perfusion chamber and allowed to incubate for five minutes after which pickup-rate was measured again. […] Oocyte pickup-rate was measured again and this rate was recorded as the “recovery” measurement. […]
# [3] = test system: hamster oviduct explants (infundibulum); assay: Ciliary beat frequency assay; assay type: cell-based, golden hamsters (Mesocricetus auratus)
# Description: Ciliary beat frequency was measured using hamster oviduct explants in an in vitro assay (Knoll et al., 1998, supra; Talbot et al., 1998, supra). Perfusion chambers containing infundibula were placed on a Wild stereoscopic microscope (model BD-HF) and viewed at 50×. A video image was sent from the microscope to a Dell computer using a Hitachi camera and recorded using a VCR onto a Super VHS videotape. To measure cilia beat frequency the videotape was played back frame-by-frame. The VCR recorded 15 frames per second. Each frame represented a fraction of a cycle; the completion of a cycle was equivalent to one beat. Number of frames per cycle (or frames per beat) were measured and then converted into beats per second. Ten measurements were made for each infundibulum for each treatment group. Recordings were made for 40-60 seconds per region, which ensured an adequate amount of data for analysis.
# For the ciliary beat frequency, oocyte pickup rate, and infundibular muscle contraction graphs, purified 3-ethylpyridine was purchased and dissolved in EBSS. A hamster infundibulum was exposed to a dose range of 9.33 e-7 to 9.33 e-4 mM (four dose groups total) for five minutes and oocyte pickup rate, ciliary beat frequency, and infundibular contraction were measured. […]
# hamster infundibula = assay: Infundibular muscle contraction assay; assay type: cell-based, golden hamsters (Mesocricetus auratus)
# From the text: The infundibular muscle contraction assay was developed after observing consistent infundibular contractions that slowed or ceased after treatment with mainstream smoke solutions. Perfusion chambers containing infundibula were placed on a Wild stereoscopic microscope (model BD-HF) and viewed at 50×. A video image was sent from the microscope to a Dell computer using a Hitachi camera and the infundibular contractions could be observed and measured on the computer monitor. As the infundibulum contracted, the image shown on the monitor moved a measurable distance. This distance was measured during each contraction by placing a ruler against the computer monitor. These values (in centimeters) were then converted to actual distance by capturing an image of a ruler under the microscope and converting the measured values to micrometers. Frequency was also measured by observing the contracting infundibula on the computer monitor. The number of times the infundibulum contracted per minute was recorded. Each parameter was measured four to six times per infundibulum per treatment group.
# For the ciliary beat frequency, oocyte pickup rate, and infundibular muscle contraction graphs, purified 3-ethylpyridine was purchased and dissolved in EBSS. […]
# [4] = CAM area, day 5-6 CAMs, 24 hours
# [5] = five minutes, single infundibulum
smiles,measurement,setting,value
CCc1cccnc1 [3-ethylpyridine],lowest effective dose lower than that of the single pyridine ring,[1]; CAM area,10 million
same,LOAEL,[1]; [4],5.36e-10 mg/mL
same,LOAEL (Molar),[1]; [4],5 pM
same,NOAEL (Molar),[1]; [4],0.5 pM
same,minimal effective concentration,"[1]; Gallus gallus, 24 h, read-out: lowest effective dose on CAM area",5e-06 µM and 5.4e-07 µg/mL
same,concentration at which oocyte pickup rate was significantly inhibited,[2]; [5],9.33 e-7 mM
same,reversibility of effect on OPR after the recovery period,[2]; recovery period,partially reversible
same,concentration at which ciliary beat frequency was significantly inhibited,[3]; [5],9.33 e-7 mM
same,CBF during the recovery period,[3]; recovery period,continued to decrease
same,concentration at which infundibular muscle contraction rate was significantly inhibited,hamster infundibula; [5],9.33 e-7 mM
same,reversibility of effect on contraction rate after the recovery period,hamster infundibula; recovery period,partially reversible
